Laboratory results from PubChem BioAssay (NCI).
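GI50 is the concentration that inhibits growth by half. TGI: total growth inhibition.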

Legend:
Assay in all cases: NCI tumour cell line growth inhibition, 384-well format
[1] = system: SK-OV-3 ovarian
[2] = system: COLO 205 colon
[3] = system: CAKI-1 renal
[4] = system: UO-31 renal
[5] = system: MDA-MB-468 breast
[6] = system: MDA-MB-231 breast
[7] = system: RPMI-8226 leukemia
[8] = system: HS 578T breast
[9] = system: OVCAR-3 ovarian
[10] = system: UACC-62 melanoma
[11] = system: NCI-H460 NSCLC
[12] = system: UACC-257 melanoma
[13] = system: BT-549 breast
[14] = system: NCI/ADR-RES ovarian
[15] = system: NCI-H522 lung
[16] = system: ACHN renal
[17] = system: KM12 colon
[18] = system: A549 NSCLC
[19] = system: HCT-15 colon
[20] = system: SF-268 CNS
[21] = system: HOP-62 NSCLC
[22] = system: SNB-75 CNS
[23] = system: MOLT-4 leukemia
[24] = system: EKVX NSCLC
[25] = system: SF-539 CNS
[26] = system: HT29 colon
[27] = system: IGROV1 ovarian
[28] = system: MALME-3M melanoma
[29] = system: DU-145 prostate
[30] = system: NCI-H322M lung
[31] = system: MDA-MB-435 melanoma
[32] = system: PC-3 prostate
[33] = system: SW-620 colon
[34] = system: LOX IMVI melanoma
[35] = system: HL-60(TB) leukemia
[36] = system: SK-MEL-5 melanoma
[37] = system: TK-10 renal
[38] = system: T-47D breast
[39] = system: OVCAR-8 ovarian
[40] = system: A498 renal
[41] = system: OVCAR-4 ovarian
[42] = system: K-562 leukemia
[43] = system: M14 melanoma
[44] = system: U251 glioblastoma
[45] = system: SNB-19 CNS

Cc1cc(-c2ncc(-c3cccnc3)cc2/C=C/c2ccccc2)cnc1-c1cccnc1
GI50 [1]: 3.17 µM
TGI [1]: 11.3 µM
GI50 [2]: 6.06 µM
GI50 [3]: 3.04 µM
TGI [3]: 21.4 µM
GI50 [4]: 2.99 µM
GI50 [5]: 3.34 µM
GI50 [6]: 4.15 µM
TGI [6]: 22.5 µM
GI50 [7]: 0.62 µM
TGI [7]: 2.37 µM
GI50 [8]: 1.6 µM
TGI [8]: 3.56 µM
GI50 [9]: 2.37 µM
TGI [9]: 5.95 µM
GI50 [10]: 2.16 µM
TGI [10]: 7.5 µM
GI50 [11]: 1.93 µM
TGI [11]: 3.46 µM
GI50 [12]: 6.52 µM
GI50 [13]: 2.32 µM
TGI [13]: 9.63 µM
GI50 [14]: 2.19 µM
TGI [14]: 5.42 µM
GI50 [15]: 2.02 µM
TGI [15]: 5.12 µM
GI50 [16]: 3.79 µM
GI50 [17]: 3.15 µM
TGI [17]: 12.1 µM
GI50 [18]: 3.33 µM
TGI [18]: > 100 µM
GI50 [19]: 3.54 µM
GI50 [20]: 3.68 µM
TGI [20]: 15.3 µM
GI50 [21]: 1.85 µM
TGI [21]: 4.11 µM
GI50 [22]: 3.07 µM
TGI [22]: 16.7 µM
GI50 [23]: 1.13 µM
TGI [23]: 2.34 µM
GI50 [24]: 3.15 µM
GI50 [25]: 3.76 µM
GI50 [26]: 3.69 µM
GI50 [27]: 3.72 µM
GI50 [28]: 2.53 µM
TGI [28]: 6.85 µM
GI50 [29]: 1.81 µM
TGI [29]: 3.55 µM
GI50 [30]: 2.29 µM
TGI [30]: 5.49 µM
GI50 [31]: 6.49 µM
GI50 [32]: 2.04 µM
TGI [32]: 4.58 µM
GI50 [33]: 3.93 µM
GI50 [34]: 2.22 µM
TGI [34]: 5.08 µM
GI50 [35]: 1.32 µM
TGI [35]: 2.59 µM
GI50 [36]: 1.12 µM
TGI [36]: 2.57 µM
GI50 [37]: 3.24 µM
GI50 [38]: 1.93 µM
TGI [38]: 8.06 µM
GI50 [39]: 2.41 µM
TGI [39]: > 100 µM
GI50 [40]: 2.78 µM
TGI [40]: 9.16 µM
GI50 [41]: 2.75 µM
TGI [41]: 9.25 µM
GI50 [42]: 3 µM
TGI [42]: 32.2 µM
GI50 [43]: 3.76 µM
TGI [43]: 12.6 µM
GI50 [44]: 3.8 µM
GI50 [45]: 3.82 µM
TGI [45]: 19.6 µM
